Experiments:
OCI-Ly3 cells = assay: 4-day proliferation assay, OCI-Ly3; assay type: cell-based, human; conditions: Homo sapiens, 96 h, 4 days incubation, CellTiterGLO, read-out: Anti-proliferation: OCI-LY-3 IC50
Experimental: (§1) To assess anti-proliferative effects, MALT1 inhibitor test compounds were tested in 4-day proliferation assays using three different DLBCL cell lines.
(§2) Cells should be kept between 0.5-2.5 million cells per mL during culturing and cells should be supplemented every 2-3 days with fresh 50 μM beta-mercaptoenthanol. No beta-mercaptoethanol is used during the proliferation assay. OCI-Ly7 cells were propagated in IMDM (ThermoFisher) supplemented with 10% fetal bovine serum (HyClone), 2 mM L-glutamine (Sigma Aldrich) and 50 μg/mL Gentamycin. Cell passage numbers should not exceed 30 (for OCI-Ly3 cells with passage number lower than 10 were used).
(§3) 10,000 TMD8, 10,000 OCI-Ly3 or 2,000 OCI-Ly7 cells were seeded in 100 μL media per well and incubated for 4 days at 37° C. and 5% CO2. Cell plating numbers were chosen based on growth curves to ensure linear cell growth. After 4 days of incubation 50 μL CellTiterGLO reagent (Promega) were added to each well and luminescence was measured on the Envision after 10 min of incubation at room temperature.
(§4) LC=median of the low control values
(§5) An estimate of the slope of the plot in terms of the Hill coefficient was also obtained.

[1] = test system: IL10 secretion by TMD8 ABC-DLBCL cells; assay: Human IL10 Mesoscale assay (TMD-8); assay type: cell-based; conditions: Homo sapiens, TMD8; TMD-8 cells, 24 h
Outline: (§6)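 TMD8 or OCI-LY3 cells (100,000/well) were exposed to compounds in 9 twofold dilutions from 15 μM to 58.6 nM (0.3% DMSO) for 24 h at 37 °C. Supernatant IL6 and IL10 were quantified by MSD electrochemiluminescence immunoassay. DMSO defined maximum signal and BTK inhibitor RN486 (30 nM–131 pM) defined maximum inhibition.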

[2] = molecular target: full-length MALT1 protein (Strep-MALT1(1-824)-His) (Homo sapiens (Human), UniProt Q9UDY8); assay: MALT1 Biochemical Protease Assay (Ac-LRSR-AMC substrate); conditions: 10 nM FL MALT1, 200 μM Ac-LRSR-AMC, 4 h at RT; read-out: MALT1_Biochemical activity (Ac-LRSR-amc) IC50
Chain of full-length MALT1 protein (Strep-MALT1(1-824)-His) (Q9UDY8 whole entry): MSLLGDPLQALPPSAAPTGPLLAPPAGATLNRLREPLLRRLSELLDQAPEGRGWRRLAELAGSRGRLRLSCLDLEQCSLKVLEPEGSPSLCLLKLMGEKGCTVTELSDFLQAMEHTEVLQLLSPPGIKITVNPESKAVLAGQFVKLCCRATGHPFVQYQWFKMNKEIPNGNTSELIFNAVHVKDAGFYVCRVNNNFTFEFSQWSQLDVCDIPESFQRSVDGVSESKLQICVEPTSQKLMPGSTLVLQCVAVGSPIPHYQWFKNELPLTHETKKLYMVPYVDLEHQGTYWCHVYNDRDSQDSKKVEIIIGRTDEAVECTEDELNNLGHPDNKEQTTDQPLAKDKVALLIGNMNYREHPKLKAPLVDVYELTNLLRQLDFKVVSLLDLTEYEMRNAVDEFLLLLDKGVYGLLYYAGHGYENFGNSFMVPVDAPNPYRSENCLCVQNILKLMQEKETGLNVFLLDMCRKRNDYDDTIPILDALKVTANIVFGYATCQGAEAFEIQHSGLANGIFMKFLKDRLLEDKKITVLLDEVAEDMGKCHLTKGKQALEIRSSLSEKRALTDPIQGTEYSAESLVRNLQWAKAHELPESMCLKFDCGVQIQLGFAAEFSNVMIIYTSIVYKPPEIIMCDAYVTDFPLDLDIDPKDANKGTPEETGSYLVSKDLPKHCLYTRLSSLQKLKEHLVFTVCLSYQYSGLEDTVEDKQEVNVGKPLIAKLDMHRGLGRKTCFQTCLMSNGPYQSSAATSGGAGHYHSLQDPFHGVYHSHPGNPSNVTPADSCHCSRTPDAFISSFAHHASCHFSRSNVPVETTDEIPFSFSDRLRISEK
Outline: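 Fluorescence from AMC release off the quenched LRSR substrate was read after a 4 h reaction at RT. Values were normalised to no-enzyme and uninhibited controls and fitted for IC50 and Hill coefficient.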

TMD8 cells = assay: 4-day proliferation assay, TMD8; assay type: cell-based; conditions: Homo sapiens, 96 h, 4 days incubation, CellTiterGLO, read-out: Anti-proliferation: TMD-8 IC50
Experimental: as §1, §2, §3, §4, §5

[3] = test system: IL6 secretion by TMD8 ABC-DLBCL cells; assay: Human IL6 Mesoscale assay (TMD-8); assay type: cell-based; conditions: Homo sapiens, TMD8; TMD-8 cells, 24 h
Outline: as §6

SMILES	IC50 (OCI-Ly3 cells)	IC50 [1]	IC50 [2]	IC50 (TMD8 cells)	IC50 [3]
Nc1cnn(-c2ncc(NC(=O)c3cnn(-c4cccc5c(=O)[nH]ccc45)c3C(F)(F)F)cc2Cl)n1 [Cpd 134, N-(6-(4-amino-2H-1,2,3-triazol-2-yl)-5-chloropyridin-3-yl)-1-(1-oxo-1,2-dihydroisoquinolin-5-yl)-5-(trifluoromethyl)-1H-pyrazole-4-carboxamide]	1.01 µM	0.046 µM	0.02 µM	20 µM	0.058 µM
N#Cc1cc(NC(=O)c2cnn(-c3ccnc4ccccc34)c2C(F)(F)F)cnc1-n1nccn1 [Cpd 138, N-(5-cyano-6-(2H-1,2,3-triazol-2-yl)pyridin-3-yl)-1-(quinolin-4-yl)-5-(trifluoromethyl)-1H-pyrazole-4-carboxamide]	0.447 µM	0.126 µM	0.023 µM	2.51 µM	0.245 µM
O=C(Nc1cnc(-n2nccn2)c(Cl)c1)c1cnn(-c2cccc3[nH]ncc23)c1C(F)(F)F [Cpd 68, N-(5-Chloro-6-(2H-1,2,3-triazol-2-yl)pyridin-3-yl)-1-(1H-indazol-4-yl)-5-(trifluoromethyl)-1H-pyrazole-4-carboxamide]	0.37 µM	0.257 µM	0.151 µM	~19.1 µM	0.417 µM
Cc1ncc(-n2ncc(C(=O)Nc3cnc(-n4nccn4)c(Cl)c3)c2C(F)(F)F)c2ccccc12 [Cpd 66, N-(5-chloro-6-(2H-1,2,3-triazol-2-yl)pyridin-3-yl)-1-(1-methylisoquinolin-4-yl)-5-(trifluoromethyl)-1H-pyrazole-4-carboxamide]	0.81 µM	0.132 µM	0.069 µM	~8.71 µM	0.331 µM
N#Cc1cc(NC(=O)c2cnn(-c3nccn4nccc34)c2C(F)(F)F)cnc1-n1nccn1 [Cpd 425, N-(5-cyano-6-(2H-1,2,3-triazol-2-yl)pyridin-3-yl)-1-(pyrazolo[1,5-a]pyrazin-4-yl)-5-(trifluoromethyl)-1H-pyrazole-4-carboxamide]	0.905 µM	0.112 µM	0.389 µM	11 µM	0.339 µM
O=C(Nc1cnc(-n2nccn2)c(Cl)c1)c1cnn(-c2ccc(F)c3nccn23)c1C(F)(F)F [Cpd 202, N-(5-chloro-6-(2H-1,2,3-triazol-2-yl)pyridin-3-yl)-1-(8-fluoroimidazo[1,2-a]pyridin-5-yl)-5-(trifluoromethyl)-1H-pyrazole-4-carboxamide]	1.36 µM	2.95 µM	0.051 µM	2.34 µM	5.01 µM
O=C(Nc1cnc(-n2nccn2)c(Cl)c1)c1cnn(-c2nccn3cccc23)c1C(F)(F)F [Cpd 147, N-(5-chloro-6-(2H-1,2,3-triazol-2-yl)pyridin-3-yl)-1-(pyrrolo[1,2-a]pyrazin-1-yl)-5-(trifluoromethyl)-1H-pyrazole-4-carboxamide]	0.966 µM	0.085 µM	0.03 µM	11.5 µM	0.2 µM
Cc1nc(-n2nccn2)c(C#N)cc1NC(=O)c1cnn(-c2cncc3c(F)cccc23)c1C(F)(F)F [Cpd 124, N-(5-cyano-2-methyl-6-(2H-1,2,3-triazol-2-yl)pyridin-3-yl)-1-(8-fluoroisoquinolin-4-yl)-5-(trifluoromethyl)-1H-pyrazole-4-carboxamide]	0.593 µM	0.015 µM	0.02 µM	0.977 µM	0.021 µM
N#Cc1cc(NC(=O)c2cnn(-c3nccc4ncccc34)c2C(F)(F)F)cnc1-n1nccn1 [Cpd 100, N-(5-cyano-6-(2H-1,2,3-triazol-2-yl)pyridin-3-yl)-1-(1,6-naphthyridin-5-yl)-5-(trifluoromethyl)-1H-pyrazole-4-carboxamide]	1.95 µM	0.155 µM	0.037 µM	~5.25 µM	0.251 µM
Cn1ccnc1-c1ncc(NC(=O)c2cnn(-c3cncc4ccccc34)c2C(F)(F)F)cc1Cl [Cpd 98, N-(5-chloro-6-(1-methyl-1H-imidazol-2-yl)pyridin-3-yl)-1-(isoquinolin-4-yl)-5-(trifluoromethyl)-1H-pyrazole-4-carboxamide]	5.75 µM	0.417 µM	0.2 µM	~11 µM	0.468 µM
CN1C(=O)COc2c(Cl)cc(NC(=O)c3cnn(-c4cncc5ccccc45)c3C(F)(F)F)cc21 [Cpd 97, N-(8-chloro-4-methyl-3-oxo-3,4-dihydro-2H-benzo[b][1,4]oxazin-6-yl)-1-(isoquinolin-4-yl)-5-(trifluoromethyl)-1H-pyrazole-4-carboxamide]	3.47 µM	0.257 µM	0.209 µM	~5.89 µM	0.575 µM
COc1ncc(NC(=O)c2cnn(-c3cccc4ncccc34)c2C(F)(F)F)cc1C#N [Cpd 85, N-(5-cyano-6-methoxypyridin-3-yl)-1-(quinolin-5-yl)-5-(trifluoromethyl)-1H-pyrazole-4-carboxamide]	1.66 µM	0.12 µM	0.132 µM	> 20 µM	0.095 µM
O=C(Nc1cnc(-c2nccs2)c(Cl)c1)c1cnn(-c2cncc3ccccc23)c1C(F)(F)F [compound 63, N-(5-chloro-6-(thiazol-2-yl)pyridin-3-yl)-1-(isoquinolin-4-yl)-5-(trifluoromethyl)-1H-pyrazole-4-carboxamide]	~1.15 µM	1.45 µM	0.295 µM	> 7.94 µM	2.04 µM
Cc1nc(-n2nccn2)c(Cl)cc1NC(=O)c1cnn(-c2cncc3c(F)cccc23)c1C(F)(F)F [Cpd 123, N-(5-chloro-2-methyl-6-(2H-1,2,3-triazol-2-yl)pyridin-3-yl)-1-(8-fluoroisoquinolin-4-yl)-5-(trifluoromethyl)-1H-pyrazole-4-carboxamide]	0.395 µM	0.182 µM	0.013 µM	0.501 µM	0.389 µM
O=C(Nc1cnc(-n2nccn2)c(C(F)(F)F)c1)c1cnn(-c2cccc3ncccc23)c1C(F)(F)F [Cpd 146, N-(6-(2H-1,2,3-triazol-2-yl)-5-(trifluoromethyl)pyridin-3-yl)-1-(quinolin-5-yl)-5-(trifluoromethyl)-1H-pyrazole-4-carboxamide]	0.337 µM	0.132 µM	0.032 µM	1.02 µM	0.331 µM
O=C(Nc1cnc(-n2nccn2)c(Cl)c1)c1cnn(-c2nccc3ccccc23)c1C(F)F [Cpd 56, N-(5-Chloro-6-(2H-1,2,3-triazol-2-yl)pyridin-3-yl)-5-(difluoromethyl)-1-(isoquinolin-1-yl)-1H-pyrazole-4-carboxamide]	0.54 µM	0.275 µM	0.257 µM	> 20 µM	0.49 µM
N#Cc1cc(NC(=O)c2cnn(-c3ncnc4sccc34)c2C(F)(F)F)cnc1-n1nccn1 [Cpd 142, N-(5-cyano-6-(2H-1,2,3-triazol-2-yl)pyridin-3-yl)-1-(thieno[2,3-d]pyrimidin-4-yl)-5-(trifluoromethyl)-1H-pyrazole-4-carboxamide]	0.38 µM	0.017 µM	0.026 µM	0.832 µM	0.107 µM
O=C1COc2c(Cl)cc(NC(=O)c3cnn(-c4cncc5ccccc45)c3C(F)(F)F)cc2N1 [Cpd 87, N-(8-Chloro-3-oxo-3,4-dihydro-2H-benzo[b][1,4]oxazin-6-yl)-1-(isoquinolin-4-yl)-5-(trifluoromethyl)-1H-pyrazole-4-carboxamide]	1.7 µM	0.324 µM	0.141 µM	~13.8 µM	0.251 µM
Cc1cnc2cccc(-n3ncc(C(=O)Nc4cnc(-n5nccn5)c(Cl)c4)c3C(F)(F)F)c2c1 [Cpd 65, N-(5-Chloro-6-(2H-1,2,3-triazol-2-yl)pyridin-3-yl)-1-(3-methylquinolin-5-yl)-5-(trifluoromethyl)-1H-pyrazole-4-carboxamide]	0.26 µM	0.12 µM	0.06 µM	10.2 µM	0.282 µM
CN1C(=O)COc2c(Cl)cc(NC(=O)c3cnn(-c4cccc5ncccc45)c3C(F)(F)F)cc21 [Cpd 95, N-(8-Chloro-4-methyl-3-oxo-3,4-dihydro-2H-benzo[b][1,4]oxazin-6-yl)-1-(quinolin-5-yl)-5-(trifluoromethyl)-1H-pyrazole-4-carboxamide]	3.8 µM	0.302 µM	0.117 µM	~7.94 µM	0.646 µM
